Reference: patent US5120752A, “Cyclopropyl derivative lipoxygenase inhibitors” (Abbott Laboratories, priority 1990, dated 1992)

Molecular target: T1, 5-lipoxygenase (Rattus norvegicus, UniProt P12527)
T1 construct: 20,000×g supernatant from 1.5 million homogenized RBL-1 cells; endogenous in cells; host or cells: RBL-1 cells (20,000×g supernatant of homogenate)
T1 sequence (P12527 1-673): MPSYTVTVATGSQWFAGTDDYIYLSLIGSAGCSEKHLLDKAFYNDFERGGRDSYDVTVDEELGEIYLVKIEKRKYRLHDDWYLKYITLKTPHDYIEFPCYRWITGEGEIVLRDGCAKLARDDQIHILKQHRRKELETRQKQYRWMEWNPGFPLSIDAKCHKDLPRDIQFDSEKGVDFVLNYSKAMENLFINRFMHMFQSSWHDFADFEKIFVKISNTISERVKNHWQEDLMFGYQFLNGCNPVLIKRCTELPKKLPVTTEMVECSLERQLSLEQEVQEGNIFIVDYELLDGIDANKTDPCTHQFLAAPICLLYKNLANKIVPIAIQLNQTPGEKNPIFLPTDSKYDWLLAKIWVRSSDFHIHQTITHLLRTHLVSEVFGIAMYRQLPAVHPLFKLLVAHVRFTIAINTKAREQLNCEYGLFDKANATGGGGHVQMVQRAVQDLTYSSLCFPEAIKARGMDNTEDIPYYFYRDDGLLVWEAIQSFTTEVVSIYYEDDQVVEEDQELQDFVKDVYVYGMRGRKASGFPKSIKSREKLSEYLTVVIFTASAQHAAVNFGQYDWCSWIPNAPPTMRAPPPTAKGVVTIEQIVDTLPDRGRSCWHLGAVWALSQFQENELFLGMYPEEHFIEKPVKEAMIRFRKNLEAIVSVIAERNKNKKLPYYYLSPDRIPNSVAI
Experiment: In vitro inhibition of 5-lipoxygenase (20,000×g supernatant from homogenized RBL-1 cells, radiolabeled arachidonic acid)
Format: biochemical
Settings: 20,000×g supernatant of RBL-1 cells; triplicate; read-out: IC50 (in vitro inhibitory potency against 5-lipoxygenase)
Protocol: Assays to determine 5-lipoxygenase inhibitory activity were performed in […] incubations containing the 20,000×g supernatant from 1.5 million homogenized RBL-1 cells and various concentrations of the test compound. Reactions were initiated by addition of radiolabeled arachidonic acid and terminated by acidification and ether extraction. Reaction products were separated from nonconverted substrate by thin layer chromatography and measured by liquid scintillation spectroscopy. All incubations were performed in triplicate. Inhibition of 5-lipoxygenase activity was calculated as the ratio of the amount of product formed in the presence and absence of inhibitor. IC50 values (concentration of compound producing 50% enzyme inhibition) were calculated by linear regression analysis of percentage inhibition versus log inhibitor concentration plots. (Dyer, R .D.; Haviv, F.; Hanel, A. M.; Bornemier, D. A.; Carter, G. W. Fed. Proc., Fed. Am. Soc. Exp. Biol. 1984, 43, 1462A).

Row | IC50 [nM] | SMILES
1 | 200 | COc1ccc2cc([C@@H]3C[C@H]3CN(O)C(N)=O)ccc2c1 (relative stereo) [Example 18, N-(1-trans-(2-(6-methoxy-2-naphthyl)cyclopropyl)methyl)-N-hydroxyurea]
2 | 80 | CC(C)Cc1ccc([C@@H]2C[C@H]2CN(O)C(N)=O)cc1 (relative stereo) [Example 20, N-(1-trans-(2-(4-(2-methyl-1-propyl)phenyl)cyclopropyl)-methyl)-N-hydroxyurea]
3 | 50 | NC(=O)N(O)C[C@@H]1C[C@H]1c1ccc(OCc2ccccc2)cc1 (relative stereo) [Example 21, N-(1-trans-(2-(4-(phenylmethoxy)phenyl)cyclopropyl)methyl)-N-hydroxyurea]
4 | 100 | CN(O)C(=O)[C@@H]1C[C@H]1c1cccc(Oc2ccccc2)c1 (relative stereo) [Example 30]
5 | 1400 | CN(O)C(=O)[C@@H]1C[C@H]1c1ccccc1 (relative stereo) [Example 31, N-methyl-N-hydroxy-trans-2-phenylcyclopropyl carboxamide]
6 | 60 | NC(=O)N(O)C[C@@H]1C[C@H]1c1ccc(Oc2ccccc2)cc1 (relative stereo) [Example 36, N-(1-trans-(2-(4-phenoxyphenyl)cyclopropyl)methyl)-N-hydroxyurea]
7 | 30 | CC(=O)N(O)C[C@@H]1C[C@H]1c1ccc(Br)cc1 (relative stereo) [Example 38, N-(1-trans-(2-(4-bromophenyl)cyclopropyl)methyl)-N-hydroxyacetamide]
8 | 1600 | NC(=O)N(O)C[C@@H]1C[C@H]1c1cccnc1 (relative stereo) [Example 42]
9 | 5700 | NC(=O)N(O)C[C@@H]1C[C@H]1c1ccncc1 (relative stereo) [Example 43, N-(1-trans-(2-(4-pyridyl)cyclopropyl)methyl)-N-hydroxyurea]
10 | 300 | CC(=O)N(O)C[C@@H]1C[C@H]1c1ccc(C)cc1 (relative stereo) [Example 46, N-(1-trans-(2-(4-methylphenyl)cyclopropyl)methyl)-N-hydroxyacetamide]
11 | 400 | NC(=O)N(O)C[C@@H]1C[C@H]1c1cccc(Oc2ccccn2)c1 (relative stereo) [Example 48, N-(1-trans-(2-(3-(2-pyridyloxy)phenyl)cyclopropyl)methyl)-N-hydroxyurea]
12 | 400 | NC(=O)N(O)C[C@@H]1C[C@H]1c1cccc(Oc2ccncc2)c1 (relative stereo) [Example 49, N-(trans-(2-(3-(4-pyridyloxy)phenyl)cyclopropyl)methyl)-N-hydroxyurea]
13 | 100 | NC(=O)N(O)C[C@@H]1C[C@H]1c1cccc(Oc2ccc(F)cc2)c1 (relative stereo) [Example 50, N-(1-trans-(2-(3-(4-fluorophenoxy)phenyl)cyclopropyl)methyl)-N-hydroxyurea]
14 | 60 | Cc1ccc(Oc2cccc([C@@H]3C[C@H]3CN(O)C(N)=O)c2)cc1 (relative stereo) [Example 51, N-(1-trans-(2-(3-(4-methylphenoxy)phenyl)cyclopropyl)methyl)-N-hydroxyurea]
15 | 100 | COc1ccc(Oc2cccc([C@@H]3C[C@H]3CN(O)C(N)=O)c2)cc1 (relative stereo) [Example 53, N-(1-trans-(2-(3-(4-methoxyphenoxy)phenyl)cyclopropyl)-methyl)-N-hydroxyurea]
16 | 300 | NC(=O)N(O)C[C@@H]1C[C@H]1c1cccc(Oc2ccc(OCc3ccccc3)cc2)c1 (relative stereo) [Example 54, N-(1-trans-(2-(3-(4-benzyloxyphenoxy)phenyl)cyclopropyl)-methyl)-N-hydroxyurea]
17 | 200 | Cc1cc([C@@H]2C[C@H]2CN(O)C(N)=O)ccc1Oc1ccccc1 (relative stereo) [Example 56, N-(1-trans-(2-(3-methyl-4-phenoxy)phenylcylclopropyl)methyl)-N-hydroxyurea]
18 | 1500 | COc1ccc([C@@H]2C[C@H]2CN(O)C(N)=O)cc1 (relative stereo) [Example 60, N-(1-trans-(2-(4-methoxyphenyl)cyclopropyl)methyl)-N-hydroxyurea]
19 | 200 | Cc1ccc([C@@H]2C[C@H]2CN(O)C(N)=O)cc1Oc1ccccc1 (relative stereo) [Example 61, N-(1-trans-(2-(4-methyl-3-phenoxyphenyl)cyclopropyl)methyl)-N-hydroxyurea]

Row | IC50 [nM] | SMILES
20 | 7600 | Cc1cccc([C@@H]2C[C@H]2CN(O)C(N)=O)n1 (relative stereo) [Example 62, N-(1-trans-(2-(6-methyl-2-pyridyl)cyclopropyl)methyl)-N-hydroxyurea]
21 | 300 | CC(C)c1ccc([C@@H]2C[C@H]2CN(O)C(N)=O)cc1 (relative stereo) [Example 63]
22 | 1000 | CC(C)Oc1cccc([C@@H]2C[C@H]2CN(O)C(N)=O)c1 (relative stereo) [Example 64]
23 | 440 | CC(C)Oc1ccc([C@@H]2C[C@H]2CN(O)C(N)=O)cc1Br (relative stereo) [Example 66, N-(1-trans-(2-(3-bromo-4-isopropoxyphenyl)cyclopropyl)-methyl)-N-hydroxyurea]
24 | 400 | CC(C)Oc1ccc([C@@H]2C[C@H]2CN(O)C(N)=O)cc1 (relative stereo) [Example 67, N-(1-trans-(2-(4-isopropoxyphenyl)cyclopropyl)methyl)-N-hydroxyurea]
25 | 300 | CC([C@@H]1C[C@H]1c1cc2ccccc2s1)N(O)C(N)=O (single isomer, unassigned) [Example 1a, N-(1-trans-(2-(benzo[b]thien-2-yl)cyclopropyl)ethyl)-N-hydroxyurea]
26 | 200 | CC([C@@H]1C[C@H]1c1cc2ccccc2s1)N(O)C(N)=O (single isomer, unassigned) [Example 1b, N-(1-trans-(2-(benzo[b]thien-2-yl)cyclopropyl)ethyl)-N-hydroxyurea]
27 | 100 | CC(=O)N(O)C(C)[C@@H]1C[C@H]1c1ccc(Br)cc1 (single isomer, unassigned) [Example 44, N-(1-trans-(2-(4-bromophenyl)cyclopropyl)ethyl)-N-hydroxyacetamide]
28 | 100 | CC([C@@H]1C[C@H]1c1ccc(Oc2ccccc2)cc1)N(O)C(N)=O (stereo partly drawn) [Example 2, N-(1-trans-(2-(4-phenoxyphenyl)cyclopropyl)ethyl)-N-hydroxyurea]
29 | 400 | CC(Oc1ccc([C@@H]2C[C@H]2C(C)N(O)C(N)=O)cc1)c1ccccc1 (stereo partly drawn) [Example 7, N-(1-trans-(2-(4-(1-phenylethoxy)phenyl)cyclopropyl)ethyl)-N-hydroxyurea]
30 | 200 | CNC(=O)N(O)C(C)[C@@H]1C[C@H]1c1cc2ccccc2s1 (stereo partly drawn) [Example 8, N-(1-trans-(2-(benzo[b]thien-2-yl)cyclopropyl)ethyl)-N-hydroxy-N'-methylure]
31 | 130 | CC([C@@H]1C[C@H]1c1ccc(OCc2ccccc2)cc1)N(O)C(N)=O (stereo partly drawn) [Example 14, N-(1-trans-(2-(4-(phenylmethoxy)phenyl)cyclopropyl)ethyl)-N-hydroxyurea]
32 | 100 | CC([C@H]1[C@H](c2ccccc2)C1(C)C)N(O)C(N)=O (stereo partly shown) [Example 24]
33 | 100 | CC([C@@H]1C[C@H]1CCc1ccccc1)N(O)C(N)=O (stereo partly drawn) [Example 32, N-(1-trans-(2(2-phenylethyl)cyclopropyl)ethyl)-N-hydroxyurea]
34 | 300 | CC([C@@H]1C[C@H]1c1ccc2ccccc2c1)N(O)C(N)=O (stereo partly drawn) [Example 45, N-(1-trans-((2-napthyl)cyclopropyl)ethyl)-N-hydroxyurea]
35 | 300 | CC(=O)N(O)C(C)[C@@H]1C[C@H]1c1ccc2ccccc2c1 (stereo partly shown) [Example 57]
36 | 700 | CC(=O)N(O)C(C)[C@@H]1C[C@H]1c1ccc(C)cc1 (stereo partly drawn) [Example 59, N-(1-trans-(2-(4-methylphenyl)cyclopropyl)ethyl)-N-hydroxyacetamide]
37 | 3600 | CC(C1CC1c1ccco1)N(O)C(N)=O (stereo not drawn) [Example 65, N-(1-trans-(2-(2-furfuranyl)cyclopropyl)ethyl-N-hydroxyurea]
